The values that follow come from patent US12636260B2, “Application of α-asarone in preparation of medicine for preventing or treating hemorrhagic stroke” (CHENGDU XINRUI TAIKANG TECHNOLOGY CO., LTD., priority 2021, dated 2026).

The test system of series [1] is SAH rats. The series is described as follows: Short-term neurological function of SAH rats (Garcia score, beam balance test, bleeding score). In kind it is in vivo, rat. The following applies: for Beam balance score / Garcia score: SAH model, 24 hours after modeling. The protocol: (§1) Experimental grouping: At 2 h after endovascular perforation or collagenase VII injection, Zea Longa score was used to evaluate the neurological function of rats. Successful model rats were randomly divided into groups for administration.
(§2) All groups were administrated through the tail vein injection except for group N administrated intraperitoneally.
The rats were fasted for 12 hours before operation, and were anesthetized with 4% isoflurane, and kept anesthetized with 2% isoflurane. The animals were fixed in the supine position with the body temperature maintained at about 37° C. A traditional skin incision of the neck was performed along the midline. The muscle and fascia were separated along the medial margin of the sternocleidomastoid muscle to expose the right side, then the common carotid artery (CCA), external carotid artery (ECA) and internal carotid artery (ICA) were bluntly separated with disposal lines placed at CCA proximal end, ICA and ECA for use. The CCA proximal end and the ECA were ligated, and the ICA was temporarily clamped with an arterial clip, and then a small hole was poked with a needle at about 4 mm from the bifurcation at the CCA. A nylon suture was introduced into the CCA from the hole and advanced through the ICA after releasing the arterial clip, and the suture was inserted intracranially. […] The suture moved forward for roughly 2 mm to perforate the artery followed by instant withdraw, and then the suture was completely removed and the ICA was ligated. Finally, the incision was cleaned with normal saline and sutured. The sham group conducted the same procedure as the model group except for the perforation. After awakening from anesthesia, the animals were raised normally.
The SAH severity was grading after rat's euthanasia, i.e., completing the evaluation of short-term neurological function. The score was determined by the amount of subarachnoid hemorrhage on the surface of basal cistern and brain tissue which was divided into six parts by the Willis ring composed of basilar artery, anterior cerebral artery, internal carotid artery, posterior cerebral artery and posterior communicating artery. Each part was graded from 0 to 3 points according to the amount of subarachnoid blood clots, i.e., 0 points: no subarachnoid blood; 1 point: a small amount of subarachnoid blood; 2 points: moderate amount of blood clots with recognizable arteries; 3 points: blood clots cover all arteries in the area. All 6 part scores were added up for a total of 18 points. According to the final score, SAH hemorrhage severity could be divided into mild subarachnoid hemorrhage (0 to 7 points), moderate subarachnoid hemorrhage (8 to 12 points), and severe subarachnoid hemorrhage (13 to 18 points). The moderate to severe SAH models were selected for statistical analysis (score≥8 points).
(§3) According to Zea Longa's neurological function score, the rats were scored 2 hours after the operation when they were awake from anesthesia. Successful model rats with a score of 1 to 3 points were enrolled in the group: • 0 points: no neurological deficits with normal activity; • 1 point: inability to fully extend the contralateral forepaw; • 2 points: the animal appears to turn in circles when crawling; • 3 points: the animal tends to lean to the hemiplegic side; • 4 points: the animal cannot walk spontaneously or loses consciousness. 1.4 Assessment of Short-Term Neurological Function
The neurological function of rats was comprehensively evaluated with Garcia score and beam balance test 24 hours after modeling. The criteria of Garcia score are shown in Table 1, which evaluates the movement, sensation, climbing and limb symmetry of the rats with the score range of 3 to 18 points. The lower the score, the more severe the neurological injury. The criteria of the beam balance test are shown in Table 2, which evaluated the proprioception and body coordination of rats with the score range of 0 to 6 points. […]

Series [2] concerns SAH rats. Nature of the series: Secondary epilepsy in SAH rats (Racine score, seizures). Format: in vivo, rat. The following applies: within 24 hours after SAH, group N, nimodipine injection 1 mg/kg intraperitoneally. How it is done:
The experimental materials, grouping, modeling method and administration protocol were the same as those in the effect embodiment 1, and the seizures of rats in each group were observed within 24 hours after SAH.

The next series has as its system ICH rats. The series is described as follows: Short-term neurological function of ICH rats (Garcia score, beam balance test). Format: in vivo, rat. The following applies: for Beam balance score / Garcia score: ICH model, 24 hours after modeling. How it is done:
as §1, §2
The rats were fasted for 12 hours before operation, and were anesthetized with 4% isoflurane, and kept anesthetized with 2% isoflurane. The animals were fixed in the prone position in a stereotaxic apparatus with the body temperature maintained at about 37° C. A traditional skin incision of the head was prepared along the midline. According to the stereotaxic atlas of the rat brain translated by Zhuge Qichao (George Paxinos, Charles Watson, Paxinos, Watson, & Zhuge Qichao. The Rat Brain in Stereotaxic Coordinates [M]. People's Medical Publishing House, 2005), the right caudate nucleus of the rat was determined as 0.0 mm anterior, 3.0 mm lateral to the bregma, and 5.5 mm ventral to the cortical surface. After labeling, we drilled an open window in the skull, and 1 μL of 0.5 U collagenase VII was slowly injected for 5 minutes with a microinjector. After the injection, the needle was stagnated for 8 minutes and slowly withdrawn. Then the scalp was sutured after the burr hole of skull was sealed with a sterile bone wax, and the rats were returned to the cage for normal feeding. The sham group conducted the same procedure as the model group, but received an equal volume of physiological saline into the caudate nucleus.
as §3
The neurological function of rats was comprehensively evaluated with Garcia score and beam balance test 24 hours after modeling. The criteria of Garcia score are shown in Table 1, which evaluates the movement, sensation, climbing and limb symmetry of the rats with the score range of 3 to 18 points. The lower the score, the more severe the neurological injury. The criteria of the beam balance test are shown in Table 2, which evaluated the proprioception and body coordination of rats with the score range of 0 to 6 points. The higher the score, the more severe the neurological injury. Scoring was done independently by a technician blinded to the modeling and drug administration.

The test system of series [3] is SAH rats. The series is described as follows: Long-term survival rate of SAH rats. Format: in vivo, rat. The following applies: nimodipine injection 1 mg/kg intraperitoneally, 2 hours after modeling then once a day for 14 days. How it is done: The experimental materials, grouping and modeling methods were the same as those in effect embodiment 1. The rats were immediately administrated 2 hours after SAH modeling according to the grouping administration protocol and continued to be administrated once a day for 14 days thereafter, and the survival of the rats was observed and recorded for 14 days. The mortality rate within 24 hours in group S was as high as 53.8%.

Another series has as its system mouse bone marrow cells. The series is described as follows: Mouse bone marrow micronucleus test by flow cytometry. The following applies: mice. Format: in vivo. The protocol: Experimental grouping and administration: The animals were randomly divided into five groups with 10 […] in each group: blank control group (blank group, administrated blank emulsion with the same volume as the high-dose group of α-asarone), cyclophosphamide group (CTX group, 40 mg/kg), low dose of α-asarone emulsion injection group (prepared by preparation embodiment 7, 100 mg/kg/day, ASA-L group), medium dose of α-asarone emulsion injection group (prepared by preparation embodiment 7, 150 mg/kg/day, ASA-M group), and high dose of α-asarone emulsion injection group (prepared from preparation embodiment 7, 200 mg/kg/day, ASA-H group).
All drugs were administrated through the tail vein for continuous 4 days except for the single injection of the positive control drug cyclophosphamide (CTX) 24 hours before sampling. After 24 hours of the last administration, the mice were sacrificed to separate both femurs. The femoral bone marrow cells were washed with PBS and filtered by 300 mesh nylon cell sieves to prepare a single-cell suspension. The suspension was centrifuged at 1650 rpm for 5 min, and the cell concentration was adjusted to 5×10^6 cells/mL by PBS resuspension. For each sample, 100 μL of the cell suspension was incubated with 400 μL of the PIPES-PI solution (10 mL of PIPES solution (concentration of 3.5 mg/mL)+0.5 mg PI+0.01 mL Triton X-100 (concentration of 0.1%)), gently blown and mixed, at 4° C. in the dark for 30 min and detected by a flow cytometry. […] The higher the value, the stronger the genotoxicity.

Setting [4] is: group N, nimodipine injection 1 mg/kg intraperitoneally.
Where [5] appears, read: CTX group, 40 mg/kg, single injection 24 hours before sampling.
The mark [6] stands for this setting: group B, β-asarone emulsion injection 20 mg/kg tail vein.
The mark [7] stands for this setting: group V, vinpocetine injection 2 mg/kg tail vein.

With `COCCOC(=O)C1=C(C)NC(C)=C(C(=O)OC(C)C)C1c1cccc([N+](=O)[O-])c1` (centres unmarked) [nimodipine, reference compound], in the series on SAH rats [1] (setting [4]), the Beam balance score came out at 3.01 and the Garcia score is given as 11.33. Also, in the series with SAH rats [2], the “Clonic seizures (%)” value is listed as 18.8%, the Racine score came to 0.81 ± 1.56 and the “Tonic seizures (%)” value turned out to be 6.2%. Moreover, in the series on ICH rats (setting [4]), the Beam balance score is 3.89 and the Garcia score was determined as 8.92. Also, the Survival rate with SAH rats [3] (Day 14, group N) was found to be 58.3%. This molecule had a 24-hour mortality rate with SAH rats [3] (group N) of 25.0%.
Consider `O=P1(N(CCCl)CCCl)NCCCO1` (centres unmarked) [CTX, cyclophosphamide, reference compound], for which, in the series with mouse bone marrow cells (setting [5]), the MNPCE is on record as 0.86 ± 0.25, the PCE is 36.46 ± 8.01 and the “fMNPCE (‰)” value is on record as 24.36 ± 8.03 ‰. For the same molecule, the “micronucleus rate compared to the blank emulsion group” value in the series on mouse bone marrow cells (cyclophosphamide 40 mg/kg (P<0.01)) is given as “significantly higher”.
`C/C=C\c1cc(OC)c(OC)cc1OC` [β-asarone, reference compound]: the “effect against the neurological impairment” value is on record as “no obvious effect” in the series on SAH rats [1] (SAH model rats, group B, β-asarone emulsion injection 20 mg/kg) and “no obvious effect” in the series with ICH rats (ICH model rats, group B, β-asarone emulsion injection 20 mg/kg). Besides, the figures for the Beam balance score with SAH rats [1] (setting [6]) and in the series on ICH rats (setting [6]) were 3.70 and 3.76, respectively. Besides, the Garcia score with SAH rats [1] (setting [6]) turned out to be 10.51; with ICH rats (setting [6]) it was 9.12.
On to `CCOC(=O)C1=C[C@]2(CC)CCCN3CCc4c(n1c1ccccc41)[C@@H]32` [vinpocetine, reference compound], for which the Beam balance score in the series with SAH rats [1] (setting [7]) turned out to be 3.54; in the series on ICH rats (setting [7]), 3.27. Also, the Garcia score with SAH rats [1] (setting [7]) was 10.30; in the series on ICH rats (setting [7]) it was 10.56.
